From PubChem BioAssay AID743071 (Broad Institute, 2013) come the findings set out here.

This test has as its system M. tuberculosis wild type plus biotin, growth inhibition. In words: mtb wild type strain growth inhibition with biotin, cell based, bioa project (AID 743071). Particulars: for IC90: measured here: Mtb growth IC90.

Activity calls are given as the source filed them. The rule behind the calls is not given here. A value given as a limit tells only on which side of the number the result lay.

Consider `Cc1nc2ccc(NC(=O)N3CCN(c4ccccc4)CC3)cc2s1`, for which the IC50 was 1.9 µM and the 90% effect concentration (IC90) was determined as 7.3 µM.

In the case of `COc1ccc(-c2cc(C(F)(F)F)n3nc(C(=O)Nc4cccnc4)cc3n2)cc1`, the IC50 was > 50 µM (inactive) and the IC90 was greater than 50 µM.

Regarding `Cc1cccc(/C=C(\CCC(=O)O)c2nc3ccccc3s2)c1`, the IC50 is 3.1 µM and the IC90 stood at 11.6 µM.

On to `CC(=O)c1ccc(N2CCN(C(=O)c3ccc4c(c3)OCCO4)CC2)cc1`, for which the IC50 was > 50 µM (inactive) and the IC90 was greater than 50 µM.

Consider `O=C(c1ccc2c(c1)OCO2)N1CCN(c2ccc(F)cc2)CC1`, for which the IC50 is 18.9 µM and the IC90 is greater than 50 µM.

For `O=C(Nc1cccc(F)c1)N1CCN(c2ccccc2)CC1`, the IC50 was 7.9 µM and the IC90 is greater than 50 µM.

Consider `O=C(Nc1ccc(Cl)c(-c2nc3ccccc3[nH]2)c1)c1cccnc1`, for which the IC50 is 6.5 µM and the IC90 was greater than 50 µM.

For the compound `O=C(Nc1ccncc1)c1cc2nc(C3CC3)cc(C(F)F)n2n1`, the IC50 is > 50 µM (inactive) and the IC90 was greater than 50 µM.

As for `O=C(Nc1ccc2snnc2c1)N1CCN(c2ccccc2)CC1`, the IC50 was > 50 µM (inactive) and the IC90 was greater than 50 µM.

Take `COc1ccc(C(=O)N2CCN(c3ccc(C(C)=O)cc3)CC2)cc1`: the IC50 was 81.4 µM (inactive) and the IC90 is greater than 50 µM.

Take `O=C(O)CC/C(=C\c1ccccc1[N+](=O)[O-])c1nc2ccccc2s1`: the IC50 was > 50 µM (inactive) and the IC90 is greater than 50 µM.

Take `CCOC(=O)N1CCN(C(=O)Nc2ccc3snnc3c2)CC1`: the IC50 is 50 µM and the IC90 was greater than 50 µM.

On to `O=C(Nc1cccnc1)c1cc2nc(-c3cccs3)cc(C(F)(F)F)n2n1`, for which the IC50 is > 50 µM (inactive) and the IC90 is greater than 50 µM.

`Cc1ccc(/C=C(\CCC(=O)O)c2nc3ccccc3s2)cc1[N+](=O)[O-]`: the IC50 was 2 µM and the IC90 worked out at 8.7 µM.

Take `O=C(Nc1ccc2[nH]ccc2c1)N1CCN(c2ccccc2)CC1`: the IC50 is 8.5 µM and the IC90 is greater than 50 µM.

For the compound `O=C(Nc1cccnc1)c1cnn2c(C(F)F)cc(C3CC3)nc12`, the IC50 is > 50 µM (inactive) and the IC90 is greater than 50 µM.

In the case of `CC(=O)c1ccc(N2CCN(C(=O)c3cccc(Cl)c3)CC2)cc1`, the IC50 was > 50 µM (inactive) and the IC90 is greater than 50 µM.

For the compound `O=C(c1ccc2c(c1)OCO2)N1CCN(Cc2ccccc2)CC1`, the IC50 was > 50 µM (inactive) and the IC90 is greater than 50 µM.

With `COc1cccc(C(=O)N2CCN(c3ccc(C(C)=O)cc3)CC2)c1`, the IC50 was > 50 µM (inactive) and the IC90 is greater than 50 µM.

Turning to `COc1ccc(NC(=O)N2CCN(c3ccccc3)CC2)cc1`, the IC50 was > 50 µM (inactive) and the IC90 is greater than 50 µM.

Take `CC(=O)c1ccc(N2CCN(Cc3ccc4c(c3)OCO4)CC2)cc1`: the IC50 is 50 µM and the IC90 was greater than 50 µM.

On to `Cc1cc(C)n2nc(C(=O)Nc3cccnc3)cc2n1`, for which the IC50 was > 50 µM (inactive) and the IC90 was greater than 50 µM.

As to `CC(=O)c1ccc(N2CCN(C(=O)c3ccc4c(c3)OCO4)CC2)cc1`, the IC50 was > 50 µM (inactive) and the IC90 was greater than 50 µM.

Take `CC(C)(C)c1ccc(C(=O)N2CCN(c3ccc4c(c3)OCO4)CC2)cc1`: the IC50 was 15 µM and the IC90 was greater than 50 µM.

Regarding `COC(=O)c1c(C(=O)OC)c(-c2cccc(F)c2)n2c1CS(=O)C2` (stereo not given), the IC50 was > 50 µM (inactive) and the IC90 was greater than 50 µM.

For `O=C(c1ccc2c(c1)OCO2)N1CCN(c2ccc(Cl)cc2)CC1`, the IC50 is 12.7 µM and the IC90 turned out to be 42.7 µM.

Take `O=C(c1ccc2c(c1)OCO2)N1CCN(c2ccccc2)CC1`: the IC50 is 22.8 µM and the IC90 is greater than 50 µM.

Consider `CCc1ccc(N2CCN(C(=O)c3ccc4c(c3)OCO4)CC2)cc1`, for which the IC50 is 8.7 µM and the IC90 was greater than 50 µM.

As for `COc1cccc(NC(=O)CCC2CCN(C(=O)c3ccc(C(C)=O)s3)CC2)c1`, the IC50 is > 50 µM (inactive) and the IC90 was greater than 50 µM.

As to `O=C(Nc1ccc(F)cc1)N1CCN(c2ccccc2)CC1`, the IC50 was 19.8 µM and the IC90 was greater than 50 µM.

For the compound `Cc1ccc(/C=C(\CCC(=O)O)c2nc3ccccc3s2)cc1`, the IC50 is 2.2 µM and the IC90 came to 5.6 µM.

For `CCc1ccc(C(=O)N2CCN(Cc3ccc4c(c3)OCO4)CC2)cc1`, the IC50 is 8.8 µM and the IC90 is greater than 50 µM.

`CC(=O)c1ccc(N2CCN(C(=O)c3ccc(F)cc3)CC2)cc1`: the IC50 is > 50 µM (inactive) and the IC90 was greater than 50 µM.

In the case of `O=C(Nc1ccc2snnc2c1)N1CCCCC1`, the IC50 was 50 µM and the IC90 is greater than 50 µM.

Turning to `CCN(CC)c1ccc2cc(C(=O)c3cccs3)c(=O)oc2c1`, the IC50 is 5.5 µM and the IC90 is greater than 50 µM.

Take `O=C(O)CC/C(=C\c1ccc([N+](=O)[O-])cc1)c1nc2ccccc2s1`: the IC50 was 8.2 µM and the IC90 is greater than 50 µM.

Regarding `CC(=O)c1ccc(N2CCN(C(=O)c3cccnc3)CC2)cc1`, the IC50 was > 50 µM (inactive) and the IC90 is greater than 50 µM.

As to `CC(=O)c1ccc(N2CCN(C(=O)c3ccc(C)cc3)CC2)cc1`, the IC50 is > 50 µM (inactive) and the IC90 is greater than 50 µM.

For `O=C(Nc1cccnc1)c1cnn2c(C(F)(F)F)cc(-c3ccccc3)nc12`, the IC50 is > 50 µM (inactive) and the 90% effect concentration (IC90) is greater than 50 µM.

`Cc1ccccc1/C=C(\CCC(=O)O)c1nc2ccccc2s1`: the IC50 is 8.4 µM and the IC90 turned out to be 40.4 µM.

Consider `COc1ccc(N2CCN(C(=O)c3ccc4c(c3)OCO4)CC2)cc1`, for which the IC50 is 10.1 µM and the IC90 was greater than 50 µM.

For `Cc1ccc(NC(=O)N2CCN(c3ccccc3)CC2)cc1`, the IC50 was 8 µM and the IC90 is greater than 50 µM.

In the case of `CC(=O)c1ccc(N2CCN(C(=O)c3ccc(Cl)cc3)CC2)cc1`, the IC50 was > 50 µM (inactive) and the IC90 was greater than 50 µM.

As to `Cc1ccc(-c2cc(C(F)(F)F)n3nc(C(=O)Nc4cccnc4)cc3n2)cc1`, the IC50 was > 50 µM (inactive) and the IC90 is greater than 50 µM.

As for `Cc1ccc(/C=C(\CCCC(=O)O)c2nc3ccccc3s2)cc1[N+](=O)[O-]`, the IC50 was 9.6 µM and the IC90 was greater than 50 µM.

As for `O=C(Nc1ccc2snnc2c1)N1CCOCC1`, the IC50 is > 50 µM (inactive) and the IC90 is greater than 50 µM.

Consider `CC(=O)c1ccc(N2CCN(C(=O)c3ccc(Br)cc3)CC2)c(F)c1`, for which the IC50 is > 50 µM (inactive) and the IC90 is greater than 50 µM.

Regarding `Cc1ccc(/C=C(\CC(=O)O)c2nc3ccccc3s2)cc1[N+](=O)[O-]`, the IC50 is 7.2 µM and the 90% effect concentration (IC90) was greater than 50 µM.

Take `O=C(Nc1ccc(Cl)cc1)c1cc2nc(C3CC3)cc(C(F)(F)F)n2n1`: the IC50 was > 50 µM (inactive) and the IC90 is greater than 50 µM.

As for `Cc1nc2cc(NC(=O)N3CCN(c4ccccc4)CC3)ccc2o1`, the half-inhibitory concentration (IC50) was 50 µM and the 90% effect concentration (IC90) was greater than 50 µM.

As to `O=C(Nc1cccnc1)N1CCN(c2ccccc2)CC1`, the IC50 was > 50 µM (inactive) and the IC90 was greater than 50 µM.

`O=C(COc1ccc2ccc(=O)oc2c1)N1CCN(c2ccc(F)cc2)CC1`: the IC50 is > 50 µM (inactive) and the concentration for an effect of 90% (IC90) is greater than 50 µM.

Regarding `CC(=O)c1ccc(N2CCN(C(=O)c3cccc(F)c3)CC2)cc1`, the IC50 was > 50 µM (inactive) and the IC90 was greater than 50 µM.

As for `O=C(Nc1cccc(Cl)c1)N1CCN(c2ccccc2)CC1`, the IC50 was 5.5 µM and the IC90 is greater than 50 µM.

On to `CC(=O)c1ccc(N2CCN(C(=O)c3ccc4ncsc4c3)CC2)cc1`, for which the IC50 was > 50 µM (inactive) and the IC90 was greater than 50 µM.

On to `CC(=O)c1ccc(N2CCN(C(=O)c3ccccc3)CC2)cc1`, for which the IC50 is > 50 µM (inactive) and the IC90 was greater than 50 µM.

As to `Cc1cc(C)n2nc(C(=O)Nc3cccnc3)nc2n1`, the IC50 is > 50 µM (inactive) and the IC90 is greater than 50 µM.

As to `O=C(Nc1ccccc1)N1CCN(c2ccccc2)CC1`, the IC50 was 11.7 µM and the IC90 is greater than 50 µM.

Turning to `COc1cc(/C=C/C(=O)Nc2cccnc2)cc(OC)c1OC`, the IC50 is > 50 µM (inactive) and the IC90 is greater than 50 µM.

`COc1cccc(NC(=O)N2CCN(c3ccccc3)CC2)c1`: the IC50 was 50 µM and the IC90 is greater than 50 µM.
